From patent US11273163B2, “Antiviral treatment” (priority 2020, dated 2022)

Test system: SARS-CoV-2 B.1.1.7
Assay: microbe, parasite or virus in culture
Type: cell-based

With `CN1CCCC(n2nc(Cc3ccc(Cl)cc3)c3ccccc3c2=O)CC1` (stereo not shown) [Azelastine, 4-[(4-chlorophenyl)methyl]-2-(1-methylazepan-4-yl)phthalazin-1-one] as the compound, how does the inhibition of infection read?
Its inhibition of infection is “over 90%”.
